Data: patent publication US20100298141A1, “SUBSTITUTED PYRIDINE N-OXIDE HERBICIDES” (E. I. DU PONT DE NEMOURS AND COMPANY, priority 2007, published 2010)

Legend:
[1] = test system: Surinam grass; experiment: Test C pre-/postemergence test; type: in vivo, Brachiaria decumbens; conditions: for Plant response rating (0 to 100), Surinam Grass: Postemergence
How it was run: (§1)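 Test chemicals were formulated with surfactant in a non-phytotoxic solvent and sprayed both on freshly planted seeds (preemergence) and on 1- to 4-leaf plants of 2–18 cm (postemergence). Flooded-paddy pots received compound directly into 3 cm of standing water, maintained for the test.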

[2] = test system: velvetleaf; experiment: Test A pre-/postemergence greenhouse test; type: in vivo, Abutilon theophrasti; conditions: for Plant response rating, Velvetleaf: 0 to 100 scale where 0 is no effect and 100 is complete control; for Velvetleaf plant response rating: 0 to 100 scale
How it was run: (§2)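 Visual injury ratings, made relative to untreated controls roughly ten days after treatment, cover both preemergence and postemergence application. Compounds in a surfactant-containing non-phytotoxic solvent were sprayed onto the soil surface after sowing and, simultaneously, onto young plants at the one- to two-leaf stage.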

[3] = test system: green foxtail; experiment: Test C pre-/postemergence test; type: in vivo, Setaria viridis
How it was run: as §1

[4] = test system: duck salad; experiment: Test C flooded paddy test; type: in vivo, Heteranthera limosa; conditions: Flood
How it was run: (§3)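 Greenhouse pots flooded to 3 cm above soil at time of treatment received compound via the water, which stayed at that level.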

[5] = test system: pigweed; experiment: Test C pre-/postemergence test; type: in vivo, Amaranthus retroflexus; conditions: for Plant response rating (0 to 100), Pigweed / Plant response rating, Pigweed: Postemergence; for Plant response rating, Pigweed: scale 0 to 100, 0 no effect, 100 complete control
How it was run: as §1

[6] = test system: woolly cupgrass; experiment: Test C pre-/postemergence test; type: in vivo, Eriochloa villosa
How it was run: as §1

[7] = test system: lambsquarters; experiment: Test C pre-/postemergence test; type: in vivo, Chenopodium album; conditions: for Lambsquarters plant response rating: preemergence, scale 0 (no effect) to 100 (complete control)
How it was run: as §1

[8] = test system: blackgrass; experiment: Test C pre-/postemergence test; type: in vivo, Alopecurus myosuroides
How it was run: as §1

[9] = test system: barnyardgrass; experiment: Test C flooded paddy test; type: in vivo, Echinochloa crus-galli; conditions: Flood
How it was run: as §3

[10] = test system: barnyardgrass; experiment: Test A pre-/postemergence greenhouse test; type: in vivo, Echinochloa crus-galli; conditions: for Plant response rating, Barnyardgrass: 0 to 100 scale where 0 is no effect and 100 is complete control; for Barnyardgrass plant response rating: 0 to 100 scale
How it was run: as §2

[11] = test system: common ragweed; experiment: Test C pre-/postemergence test; type: in vivo, Ambrosia elation; conditions: for Plant response rating (0 to 100), Ragweed / Plant response rating, Ragweed: Postemergence; for Plant response rating, Ragweed: scale 0 to 100, 0 no effect, 100 complete control
How it was run: as §1

[12] = test system: soybean; experiment: Test C pre-/postemergence test; type: in vivo, Glycine max
How it was run: as §1

[13] = test system: crabgrass; experiment: Test A pre-/postemergence greenhouse test; type: in vivo, Digitaria sanguinalis; conditions: for Plant response rating, Crabgrass, Large: 0 to 100 scale where 0 is no effect and 100 is complete control; for Crabgrass, Large plant response rating: 0 to 100 scale
How it was run: as §2

[14] = test system: velvetleaf; experiment: Test C pre-/postemergence test; type: in vivo, Abutilon theophrasti
How it was run: as §1

[15] = test system: downy brome; experiment: Test C pre-/postemergence test; type: in vivo, Bromus tectorum
How it was run: as §1

[16] = test system: giant foxtail; experiment: Test A pre-/postemergence greenhouse test; type: in vivo, Setaria faberi; conditions: for Plant response rating, Foxtail, Giant: 0 to 100 scale where 0 is no effect and 100 is complete control; for Foxtail, Giant plant response rating: 0 to 100 scale
How it was run: as §2

[17] = 62 g ai/ha, Preemergence, scale 0 to 100
[18] = 125 g ai/ha, preemergence, scale 0 (no effect) to 100 (complete control)
[19] = Preemergence, 31 g ai/ha, scale 0 to 100 (0 no effect, 100 complete control)
[20] = preemergence, 250 g ai/ha, scale 0 (no effect) to 100 (complete control)
[21] = Postemergence, 500 g ai/ha, 0 is no effect, 100 is complete control
[22] = Preemergence, 125 g ai/ha, 0 no effect, 100 complete control
[23] = Postemergence, 125 g ai/ha, scale 0 to 100, 0 no effect, 100 complete control
[24] = Postemergence, 250 g ai/ha, scale 0 to 100, 0 no effect, 100 complete control
[25] = 62 g ai/ha, scale 0 to 100 (0 no effect, 100 complete control)
[26] = 250 g ai/ha, scale 0 to 100, 0 no effect, 100 complete control, 13 to 15 days

What does the source list for `CC(Oc1c(CS(=O)(=O)c2cccc[n+]2[O-])c(C(F)(F)F)nn1C)C(F)(F)F` (centres unmarked) [Compound 82]?
Surinam Grass plant response rating [1, 17]: 80; Surinam Grass plant response rating [1, 18]: 90; Plant response rating (0 to 100), Surinam Grass ([1]; 31 g ai/ha): 0; Plant response rating (0 to 100), Surinam Grass ([1]; 62 g ai/ha): 0; Plant response rating, Surinam Grass [1, 19]: 70; Surinam Grass plant response rating [1, 20]: 90; Plant response rating, Velvetleaf ([2]; Postemergence, 125 g ai/ha): 10; Velvetleaf plant response rating [2, 21]: 80; Velvetleaf plant response rating [2, 22]: 60; Plant response rating, Velvetleaf ([2]; Preemergence, 500 g ai/ha): 100; Foxtail, Green plant response rating [3, 17]: 95; Foxtail, Green plant response rating [3, 18]: 98; Plant response rating (0 to 100), Foxtail, Green ([3]; Postemergence, 31 g ai/ha): 0; Plant response rating (0 to 100), Foxtail, Green ([3]; Postemergence, 62 g ai/ha): 40; Plant response rating, Foxtail, Green [3, 23]: 60; Plant response rating, Foxtail, Green [3, 24]: 80; Plant response rating, Foxtail, Green [3, 19]: 95; Foxtail, Green plant response rating [3, 20]: 100; Plant response rating, Ducksalad [4, 25]: 60; Plant response rating, Ducksalad [4, 26]: 80; Pigweed plant response rating [5, 17]: 85; Pigweed plant response rating [5, 18]: 100; Plant response rating (0 to 100), Pigweed ([5]; 31 g ai/ha): 0; Plant response rating (0 to 100), Pigweed ([5]; 62 g ai/ha): 0; Plant response rating, Pigweed ([5]; 125 g ai/ha): 0; Plant response rating, Pigweed ([5]; 250 g ai/ha): 10; Pigweed plant response rating [5, 20]: 100; Cupgrass, Woolly plant response rating [6, 17]: 90; Cupgrass, Woolly plant response rating [6, 18]: 90; Plant response rating (0 to 100), Cupgrass, Woolly ([6]; Postemergence, 31 g ai/ha): 0; Plant response rating (0 to 100), Cupgrass, Woolly ([6]; Postemergence, 62 g ai/ha): 0; Plant response rating, Cupgrass, Woolly [6, 23]: 20; Plant response rating, Cupgrass, Woolly [6, 24]: 50; Plant response rating, Cupgrass, Woolly [6, 19]: 80; Cupgrass, Woolly plant response rating [6, 20]: 98; Lambsquarters plant response rating ([7]; 125 g ai/ha): 0; Plant response rating (0 to 100), Lambsquarters ([7]; Postemergence, 31 g ai/ha): 0; Plant response rating (0 to 100), Lambsquarters ([7]; Postemergence, 62 g ai/ha): 0; Plant response rating, Lambsquarters [7, 24]: 0; Lambsquarters plant response rating ([7]; 250 g ai/ha): 100; Blackgrass plant response rating [8, 17]: 100; Blackgrass plant response rating [8, 18]: 100; Plant response rating (0 to 100), Blackgrass ([8]; Postemergence, 31 g ai/ha): 0; Plant response rating (0 to 100), Blackgrass ([8]; Postemergence, 62 g ai/ha): 60; Plant response rating, Blackgrass [8, 23]: 90; Plant response rating, Blackgrass [8, 24]: 95; Plant response rating, Blackgrass [8, 19]: 100; Blackgrass plant response rating [8, 20]: 100; Plant response rating, Barnyardgrass [9, 25]: 0; Plant response rating, Barnyardgrass [9, 26]: 80; Plant response rating, Barnyardgrass ([10]; Postemergence, 125 g ai/ha): 70; Barnyardgrass plant response rating [10, 21]: 80; Barnyardgrass plant response rating [10, 22]: 90; Plant response rating, Barnyardgrass ([10]; Preemergence, 500 g ai/ha): 100; Ragweed plant response rating [11, 17]: 0; Ragweed plant response rating [11, 18]: 100; Plant response rating (0 to 100), Ragweed ([11]; 31 g ai/ha): 0; Plant response rating (0 to 100), Ragweed ([11]; 62 g ai/ha): 30; Plant response rating, Ragweed ([11]; 125 g ai/ha): 35; Plant response rating, Ragweed ([11]; 250 g ai/ha): 50; Ragweed plant response rating [11, 20]: 100; Soybean plant response rating [12, 17]: 30; Plant response rating (0 to 100), Soybean ([12]; Postemergence, 31 g ai/ha): 0; Plant response rating (0 to 100), Soybean ([12]; Postemergence, 62 g ai/ha): 0; Plant response rating, Soybean [12, 23]: 0; Plant response rating, Soybean [12, 24]: 20; Plant response rating, Soybean [12, 19]: 0; Soybean plant response rating [12, 20]: 70; Plant response rating, Crabgrass, Large ([13]; Postemergence, 125 g ai/ha): 80; Crabgrass, Large plant response rating [13, 21]: 90; Crabgrass, Large plant response rating [13, 22]: 80; Plant response rating, Crabgrass, Large ([13]; Preemergence, 500 g ai/ha): 100; Velvetleaf plant response rating [14, 17]: 80; Velvetleaf plant response rating [14, 18]: 80; Plant response rating (0 to 100), Velvetleaf ([14]; Postemergence, 31 g ai/ha): 0; Plant response rating (0 to 100), Velvetleaf ([14]; Postemergence, 62 g ai/ha): 0; Plant response rating, Velvetleaf [14, 23]: 0; Plant response rating, Velvetleaf [14, 24]: 20; Plant response rating, Velvetleaf [14, 19]: 0; Velvetleaf plant response rating [14, 20]: 100; Bromegrass, Downy plant response rating [15, 17]: 60; Bromegrass, Downy plant response rating [15, 18]: 80; Plant response rating (0 to 100), Bromegrass, Downy ([15]; Postemergence, 31 g ai/ha): 0; Plant response rating (0 to 100), Bromegrass, Downy ([15]; Postemergence, 62 g ai/ha): 0; Plant response rating, Bromegrass, Downy [15, 23]: 0; Plant response rating, Bromegrass, Downy [15, 24]: 0; Plant response rating, Bromegrass, Downy [15, 19]: 50; Bromegrass, Downy plant response rating [15, 20]: 100; Plant response rating, Foxtail, Giant ([16]; Postemergence, 125 g ai/ha): 90; Foxtail, Giant plant response rating [16, 21]: 90; Foxtail, Giant plant response rating [16, 22]: 100; Plant response rating, Foxtail, Giant ([16]; Preemergence, 500 g ai/ha): 100
